Measurements reported in patent US20070105939A1, “Mesylate salt of 5-(2-dimethylaminoethoxy)-1H-indole-2-carboxylic acid [3-(4-hydroxycarbamoylphenyl)prop-2-ynyl]amide” (Pharmacyclics, Inc., priority 2005, published 2007).
Like-named read-outs stand apart in the source and are kept apart here.

What was measured:
[1] = in vivo
[2] = test system: histone deacetylase enzyme H1; conditions: disclosed in PCT publication WO 2004/019174; cited from earlier work
[3] = Oral bioavailability (background statement); conditions: have to be administered parenterally for therapeutic effect
[4] = Solubility (background statement)

| Structure (SMILES) | oral bioavailability [1] | inhibition of histone deacetylase enzyme H1 [2] | oral bioavailability [3] | solubility [4] |
| --- | --- | --- | --- | --- |
| CN(C)CCOc1ccc2[nH]c(C(=O)NCC#Cc3ccc(C(=O)NO)cc3)cc2c1 [5-(2-dimethylaminoethoxy)-1H-indole-2-carboxylic acid [3-(4-hydroxy-carbamoylphenyl)prop-2-ynyl]amide] | poor | inhibitors | – | – |
| CN(C)CCOc1ccc2[nH]c(C(=O)NCC#Cc3ccc(C(=O)NO)cc3)cc2c1.Cl [hydrochloride salt, 5-(2-dimethylaminoethoxy)-1H-indole-2-carboxylic acid [3-(4-hydroxy-carbamoylphenyl)prop-2-ynyl]amide hydrochloride] | – | inhibitors | poor | poor |
